In patent US7148204B2, “Antisense modulation of bcl-x expression” (Isis Pharmaceuticala, Inc., priority 1998, dated 2006):
In the oligonucleotide strings, read from the 5' end, every base follows the letter of its sugar. An asterisk marks phosphorothioate; unmarked linkages are phosphodiester. Other units and linkages are bracketed, terminal groups are in braces. A string of capitals states the bases alone. e = 2'-O-(2-methoxyethyl) (MOE); [5mC] = 5-methylcytosine; d = 2'-deoxy (DNA)

Assays:
[1] = system: bcl-xl protein; assay: Immunoblot of bcl-xl protein in CEM cells; type: cell-based, human
Protocol: Postnuclear detergent lysates were prepared as described by Reed et al. (Cancer Res., 1991, 51, 6529–6538), and the protein concentration was determined using a Bradford method protein assay kit (Bio-Rad, Hercules, Calif.). Protein (20 μg) was loaded in each lane, followed by electrophoresis on a 12% sodium dodecyl sulfate-polyacrylamide gel, followed by immunoblotting (Winston et al., 1993). The primary antibody was a 0.4 μg/ml dilution of the mouse monoclonal anti-human bcl-2 (clone 124, Dako, Carpinteria, Calif.), a 4.0 μg/ml dilution of the rabbit polyclonal anti-human bcl-xs/l (Dako), or a 0.3 μg/ml dilution of rabbit polyclonal anti-human Bax (N-20, Santa Cruz Biotechnology, Santa Cruz, Calif.). For development and STORM fluorescent imaging, the secondary antibody was peroxidase-conjugated sheep anti-mouse or donkey anti-rabbit (Amersham, Little Chalfort, UK). Chemiluminescence imaging and quantification were preformed using the STORM instrument and ImageQuant software (Molecular Dynamics, Sunnyvale, Calif.).

[2] = system: CEM-C7 cells; assay: Viable cell counts of CEM cells (propidium iodide exclusion, flow cytometry); type: cell-based, human; settings: CEM cells; for viability by propidium iodide exclusion: 20 μM electroporation
Protocol: CEM-C7 cells (Norman et al., 1978), a glucocortocoid sensitive clone of the human T-lymphoblastic cell line CEM, were cultured between 5×10^4 to 10^6 cells/ml in RPMI 1640 medium containing 10% heat-inactivated fetal bovine serum (FBS), streptomycin, penicillin G, 15 mM HEPES, 2 mM sodium pyruvate, at 37° C. in a humid, 5% CO2 incubator. Viable cell counts were performed by propidium iodide staining and flow cytometry.
CEM-C7 cells were electroporated with the indicated concentrations of oligonucleotides at 150 volts, 1,700 microFaraday (μF), and a resistance setting of 5 with a BTX electroporation apparatus (Genetronics, San Diego, Calif.) in 2-mm gap cuvettes containing 5×10^6 cells in 200 μl RPMI plus 20% FBS on ice. Cells were left on ice for 10 minutes, then plated in 5 ml complete media.

[3] = system: HUVEC; assay: Apoptosis of HUVEC (hypodiploid cells by flow cytometry); type: cell-based, human; settings: for increase in cellular DNA fragmentation over background: agent alone at low dose: staurosporine 2 nM, C6-ceramide 5 μM
Protocol: Human umbilical vein endothelial cells (HUVEC) were obtained from Clonetics (San Diego Calif.) and cultivated in endothelial growth medium (EGM) supplemented with 10% fetal bovine serum. Cells were used between passages 2 and 5 and were used at approximately 80% confluency. Cells were washed three times with pre-warmed (37° C.) Opti-MEM™. Oligonucleotides were premixed with 10 μg/ml Lipofectin™ in Opto-MEM™ at an oligonucleotide concentration of 50 nM ISIS 16009. Cells were incubated with oligonucleotide for 4 hours at 37° C. after which the medium was removed and replaced with standard growth medium. Treatment with C6-ceramide (Calbiochem, San Diego Calif.), staurosporine (Calbiochem), or z-VAD.fmk (Calbiochem), if any, was done 24 hours after oligonucleotide treatment. […] Apoptotic cells with fragmented DNA were identified by flow cytometry analysis of hypodiploid cells.

[4] = system: bcl-xs mRNA; assay: RNase protection assay, bcl-xs mRNA in A549 cells; type: cell-based, human; parameters: concentration or dose not given beside the values; settings: RPA
From the text: (§1) The ribonuclease (RNase) protection assay is a sensitive and specific method for quantitating expression levels (Zinn, et al., Cell, 1983, 34:865–79). The method is based on the hybridization of a target RNA to an in vitro transcribed ^32P-labeled anti-sense RNA probe from a DNA template. RNase treatment follows, resulting in degradation of single-stranded RNA and excess probe. The probe and target RNA are resolved by denaturing polyacrylamide gel electrophoresis with the “protected” probe visualized using autoradiography or beta imaging equipment. Template sets can be purchased (PharMingen Inc., San Diego Calif.) which contain a series of biologically relevant templates, each of distinct length and each representing a sequence in a distinct mRNA species. Each template set is capable of detecting up to 11 unique gene messages in a single reaction mix in addition to one or more housekeeping genes, L32 and GAPDH, which serve as internal controls. These template sets allow for multiple determinations to be made from a single sample. Multi-probe RPA can be performed on total RNA preparations derived by standard methods, without further purification of poly-A+ RNA.
(§2) Oligonucleotides were evaluated for their respective effects on bcl-xs and bcl-xl mRNA levels along with total bcl-x mRNA levels, using the RIBOQUANT™ RNase protection kit (Pharmingen, San Diego Calif.). All assays were performed according to manufacturer's protocols. Briefly, multi-probe DNA template sets were used to generate antisense RNA transcripts radiolabeled with […]. The template set used for apoptosis genes was the human hAPO-2 set. These radiolabeled probes were hybridized overnight with typically 10 μg of total cellular RNA. The reaction mixture was then digested with single-strand RNases to generate the protected fragments which were electrophoresed through a 5% acrylamide/urea gel. Protected bands were visualized and quantitated using a PhosphorImager (Molecular Dynamics, Sunnyvale Calif.).
(§3) Human bcl-x has two forms, a long form known as bcl-xl and a short form known as bcl-xs. […] The protein of bcl-xl is similar in size and structure to bcl-2, and could inhibit cell death upon growth factor withdrawal. The protein of bcl-xs is 63 amino acids shorter than bcl-xl. It could inhibit the bcl-2 function, thus promoting programmed cell death (apoptosis). Oligonucleotides were evaluated for their respective effects on bcl-xs and bcl-xl mRNA levels along with total bcl-x mRNA levels, using the RIBOQUANT™ RNase protection kit (Pharmingen, San Diego Calif.). All assays were performed according to manufacturer's protocols.

[5] = system: total bcl-x mRNA; assay: RNase protection assay, total bcl-x mRNA in A549 cells; type: cell-based, human; parameters: % CONTROL total bcl-x: concentration or dose not given beside the values; settings: RPA
From the text: as §1, §2, §3

[6] = system: bcl-xs/bcl-xl mRNA ratio; assay: RNase protection assay, bcl-xs/bcl-xl mRNA ratio in A549 cells; type: cell-based, human; settings: A549 cells, RPA; for bcl-xs/bcl-xl (%): no oligo 17.56; for bcl-xs/bcl-xl* (change from the control ratio 17.56): no oligo = 1
From the text: as §1, §2, §3
(§4) These oligonucleotides were tested for their inhibitory effects on bcl-xl and bcl-xs mRNA levels in A549 cells, as detected by RPA analysis. Oligonucleotide concentration was 200 nM.

[7] = system: bcl-xl mRNA; assay: RNase protection assay, bcl-xl mRNA in A549 cells; type: cell-based, human; settings: RPA
From the text: as §1, §2, §3, §4

[8] = system: human bcl-x mRNA; assay: Northern blot analysis of bcl-x mRNA levels in A549 cells; type: cell-based; settings: 200 nM chimeric oligonucleotide
Protocol: Eighteen hours after antisense treatment, cell monolayers were washed twice with cold PBS and lysed in 1 mL RNAZOL™ (TEL-TEST “B” Inc., Friendswood, Tex.). Total RNA was prepared following manufacturer's recommended protocols. Twenty micrograms of total RNA was fractionated by electrophoresis through 1.2% agarose gels containing 1.1% formaldehyde using a MOPS buffer system (AMRESCO, Inc. Solon, Ohio). RNA was transferred from the gel to HYBOND™-N+ nylon membranes (Amersham Pharmacia Biotech, Piscataway, N.J.) by overnight capillary transfer using a Northern/Southern Transfer buffer system (TEL-TEST “B” Inc., Friendswood, Tex.). RNA transfer was confirmed by UV visualization. Membranes were fixed by UV cross-linking using a STRATALINKER™ UV Crosslinker 2400 (Stratagene, Inc, La Jolla, Calif.).
Membranes were probed using QUICKHYB™ hybridization solution (Stratagene, La Jolla, Calif.) using manufacturer's recommendations for stringent conditions with an 822-base pair bcl-x specific probe prepared by PCR from bases 33–855 of human bcl-xl sequence (Boise et al., 1993, Cell 74:597–608; GenBank accession no. L20121). To normalize for variations in loading and transfer efficiency membranes were stripped and probed for glyceraldehyde-3-phosphate dehydrogenase (GAPDH) RNA (Clontech, Palo Alto, Calif.). Hybridized membranes were visualized and quantitated using a PHOSPHORIMAGER™ and IMAGEQUANT™ Software V3.3 (Molecular Dynamics, Sunnyvale, Calif.). Data was normalized to GAPDH levels in untreated controls.
Oligonucleotides were tested by Northern blot analysis as described in Example 14. Oligonucleotides were tested in A549 cells at a concentration of 400 nM. The results are Table 2:
Oligonucleotides were tested by Northern blot analysis as described in Example 14. Chimeric oligonucleotides were in A549 cells at a concentration of 200 nM. Where present, “N.D.” indicates “not determined”.

[9] = system: bcl-x; assay: SCID-human leukemia model, bcl-x expression in SEM-K2 xenografts; type: in vivo, human SEM-K2 cells in SCID-NOD mice; settings: 14-day s.c. infusion 100 μg/day (5 mg/kg/day), quantitative flow cytometry, n=3
Protocol: 10^7 SEM-K2 cells in exponential phase of growth were injected subcutaneously into 8 SCID-NOD mice as a bolus (suspended in sterile saline). Engraftment and tumor formation occurred over a 2–3 week period. Micro Alzet pumps (Alza, Newark Del.) capable of delivering a continuous subcutaneous infusion over 14 days were used to deliver a dose of 100 μg per day (equivalent to 5 mg/kg) of ISIS 16009 and scrambled control ISIS 15691 into two groups of three animals, respectively. The remaining two animals received vehicle (sterile saline) only.
Mean reductions in expression of approximately 90% (n=3) compared to control (p<0.01) were measured using quantitative flow cytometry. This was compared to statistically insignificant (<20%, p<0.3) reductions in bcl-x expression by scrambled control oligonucleotide ISIS 15691 (n=3).

[10] = system: SEM-K2 xenograft cells; assay: VP-16-induced apoptosis of xenograft cells (CPP32 DEVD-pNA cleavage, light scatter); type: in vivo, human SEM-K2 cells in SCID-NOD mice
Protocol: Xenografts were removed after sacrifice and mechanically dispersed into large volumes of medium. Leukocytes were purified by density gradient centrifugation and washed with medium before resuspending in 1 ml volumes at 1–5×10^6 cells/ml. Cells were incubated at 37° C. in 95% humidified air/5% CO2 for 2 hours prior to induction of apoptosis with 20 μg/ml VP-16 (Etoposide) over 24 hours. Each xenograft cell suspension treated with VP-16 was paired with a respective negative control. Apoptosis was assessed nonspecifically using quantification of light scatter changes; reduction in side scatter (due to chromatin condensation) and reduction in forward scatter (due to cell shrinkage) are early changes associated with apoptosis. Bimodal population distributions consisting of apoptotic and non-apoptotic cells could be measured respectively allowing estimation of an apoptotic index for treated and negative control. Fold increase in apoptosis was calculated from their ratio. More specific determination of apoptosis was achieved using the Apo-Alert Caspase-3 Colorimetric Assay Kit (Clontech, Palo Alto Calif.). This is a DEVD-specific caspase assay, a quantitative assay for the activity of caspase-3, a member of the caspase family thought to mediate apoptosis in most mammalian cell types. […] DEVD-dependent protease activity is assessed by detection of the free AFC or pNA cleaved from the substrates. […]

| Compound | % CONTROL bcl-xs [4] [%] | % CONTROL total bcl-x [5] [%] | bcl-xs/bcl-xl (%) [6] [%] | bcl-xs/bcl-xl* (change from the control ratio 17.56) [6] | % CONTROL bcl-xl [7] [%] | further results |
| --- | --- | --- | --- | --- | --- | --- |
| 5′-TCACATTGGCGCTTAGCCGT-3′ (chemistry not given here) [ISIS 16971, reference compound] | – | – | – | – | – | level of bcl-xl protein [1]: no effect; viability by propidium iodide exclusion ([2]; 48 hours): 70%; viability by propidium iodide exclusion ([2]; 72 hours): 82%; viable cell count at the highest concentration ([2]; 20 hours after electroporation): started to decrease |
| CN[C@@H]1C[C@H]2O[C@@](C)([C@@H]1OC)n1c3ccccc3c3c4c(c5c6ccccc6n2c5c31)C(=O)NC4 [staurosporine] | – | – | – | – | – | increase in cellular DNA fragmentation over background [3]: did not cause a significant increase |
| 16012 (antisense e[5mC]*e[5mC]*eA*eG*e[5mC]*dC*dG*dC*dC*dG*dT*dT*dC*dT*dC*e[5mC]*eT*eG*eG*eA) [compound 16012] | 48 | 61 | 13.17 | 0.75 | 63 | % CONTROL (bcl-x mRNA levels) [8]: 30%; % INHIB (bcl-x mRNA levels) [8]: 70% |
| GACATCCCTTTCCCCCTCGG (chemistry not given here) [ISIS 15691] | – | – | – | – | – | mean reduction in bcl-x expression [9]: < 20%; apoptotic index (light scatter) ([10]; 20 μg/ml VP-16): not seen; change in VP-16-induced apoptosis ([10]; 20 μg/ml VP-16, n=3): very little change |
| 16013 (antisense eT*eA*eG*eA*eG*dT*dT*dC*dC*dA*dC*dA*dA*dA*dA*eG*eT*eA*eT*e[5mC]) [compound 16013] | 60 | 82 | 12.46 | 0.71 | 83 | % CONTROL (bcl-x mRNA levels) [8]: 85%; % INHIB (bcl-x mRNA levels) [8]: 15% |
| COC(=O)CC[C@H](NC(=O)[C@H](CC(=O)OC)NC(=O)OCc1ccccc1)C(=O)N[C@H](C(=O)N[C@@H](CC(=O)OC)C(=O)CF)C(C)C [z-DEVD.fmk] | – | – | – | – | – | apoptosis caused by bcl-x inhibition, or bcl-x plus staurosporine or ceramide ([3]; caspase inhibitor treatment): prevented |
| 22782 (antisense e[5mC]*eA*eA*eA*eA*eG*eT*eA*eT*e[5mC]*e[5mC]*e[5mC]*eA*eG*e[5mC]*e[5mC]*eG*e[5mC]*e[5mC]*eG) [compound 22782] | 64 | 75 | 15.72 | 0.89 | 76 | – |
| CCCCCCCCCCCCC/C=C/[C@@H](O)[C@H](CO)NC(=O)CCCCC [C6-ceramide] | – | – | – | – | – | increase in cellular DNA fragmentation over background [3]: did not cause a significant increase |
| 23175 (antisense eT*eG*eT*eA*eG*e[5mC]*e[5mC]*e[5mC]*eA*eG*e[5mC]*eA*eG*eA*eA*e[5mC]*e[5mC]*eA*e[5mC]*eG) [compound 23175] | 52 | 78 | 11.44 | 0.65 | 82 | – |
